Experimental data: ChEMBL document CHEMBL6074711, “Design, Synthesis, and Activity Evaluation of C-23-Modified 5-O-Mycaminosyltylonolide Derivatives” (ACS Med Chem Lett, 2024)
Values after ≈ are worked out from the molar mass of the structure shown.

Experiments:
Assay type in all cases: functional
Settings in all cases: time 16-20 hrs
[1] = tested on: Stenotrophomonas maltophilia; test: Antibacterial activity against Stenotrophomonas maltophilia ATCC17808 incubated for 16 to 20 hrs by broth microdilution method
[2] = tested on: Staphylococcus aureus; test: Antibacterial activity against Staphylococcus aureus ATCC25923 incubated for 16 to 20 hrs by broth microdilution method
[3] = tested on: Enterococcus faecalis; test: Antibacterial activity against Enterococcus faecalis ATCC29212 incubated for 16 to 20 hrs by broth microdilution method
[4] = tested on: Escherichia coli; test: Antibacterial activity against Escherichia coli ATCC25922 incubated for 16 to 20 hrs by broth microdilution method

MIC [1] [µg/mL] | MIC [2] [µg/mL] | MIC [3] [µg/mL] | MIC [4] [µg/mL] | SMILES
2 (≈ 2.2 µM) | 0.5 (≈ 0.549 µM) | 2 (≈ 2.2 µM) | 2 (≈ 2.2 µM) | CC[C@H]1OC(=O)C[C@@H](O)[C@H](C)[C@@H](O[C@@H]2O[C@H](C)[C@@H](O)[C@H](N(C)C)[C@H]2O)[C@@H](CCNCc2cn(-c3cnc4ccccc4c3)nn2)C[C@@H](C)C(=O)/C=C/C(C)=C/[C@@H]1CN(C)Cc1ccccc1
– | 0.5 (≈ 0.511 µM) | – | 4 (≈ 4.09 µM) | CC[C@H]1OC(=O)C[C@@H](O)[C@H](C)[C@@H](O[C@@H]2O[C@H](C)[C@@H](O)[C@H](N(C)C)[C@H]2O)[C@@H](CCN(Cc2cn(-c3cnc4ccccc4c3)nn2)c2ccccc2)C[C@@H](C)C(=O)/C=C/C(C)=C/[C@@H]1CN(C)C1CCCCC1
1 (≈ 1.08 µM) | 2 (≈ 2.16 µM) | 2 (≈ 2.16 µM) | 1 (≈ 1.08 µM) | CC[C@H]1OC(=O)C[C@@H](O)[C@H](C)[C@@H](O[C@@H]2O[C@H](C)[C@@H](O)[C@H](N(C)C)[C@H]2O)[C@@H](CCNCc2cn(-c3cnc4ccccc4c3)nn2)C[C@@H](C)C(=O)/C=C/C(C)=C/[C@@H]1CN(CC)Cc1ccccc1
– | 2 (≈ 2.16 µM) | – | 8 (≈ 8.66 µM) | CCCNC[C@H]1/C=C(C)/C=C/C(=O)[C@H](C)C[C@H](CCN(Cc2cn(-c3cnc4ccccc4c3)nn2)c2ccccc2)[C@H](O[C@@H]2O[C@H](C)[C@@H](O)[C@H](N(C)C)[C@H]2O)[C@@H](C)[C@H](O)CC(=O)O[C@@H]1CC
2 (≈ 2.05 µM) | 1 (≈ 1.03 µM) | 2 (≈ 2.05 µM) | 2 (≈ 2.05 µM) | CC[C@H]1OC(=O)C[C@@H](O)[C@H](C)[C@@H](O[C@@H]2O[C@H](C)[C@@H](O)[C@H](N(C)C)[C@H]2O)[C@@H](CCNCc2cn(-c3cnc4ccccc4c3)nn2)C[C@@H](C)C(=O)/C=C/C(C)=C/[C@@H]1CNCc1ccc(Br)cc1
1 (≈ 1.04 µM) | 2 (≈ 2.08 µM) | 2 (≈ 2.08 µM) | 1 (≈ 1.04 µM) | CC[C@H]1OC(=O)C[C@@H](O)[C@H](C)[C@@H](O[C@@H]2O[C@H](C)[C@@H](O)[C@H](N(C)C)[C@H]2O)[C@@H](CCNCc2cn(-c3cnc4ccccc4c3)nn2)C[C@@H](C)C(=O)/C=C/C(C)=C/[C@@H]1CNc1ccc(Br)cc1
1 (≈ 1.07 µM) | 1 (≈ 1.07 µM) | 2 (≈ 2.15 µM) | 2 (≈ 2.15 µM) | CC[C@H]1OC(=O)C[C@@H](O)[C@H](C)[C@@H](O[C@@H]2O[C@H](C)[C@@H](O)[C@H](N(C)C)[C@H]2O)[C@@H](CCNCc2cn(-c3cnc4ccccc4c3)nn2)C[C@@H](C)C(=O)/C=C/C(C)=C/[C@@H]1CNCc1ccc(Cl)cc1
4 (≈ 4.23 µM) | 2 (≈ 2.12 µM) | 2 (≈ 2.12 µM) | 1 (≈ 1.06 µM) | CC[C@H]1OC(=O)C[C@@H](O)[C@H](C)[C@@H](O[C@@H]2O[C@H](C)[C@@H](O)[C@H](N(C)C)[C@H]2O)[C@@H](CCN(C)Cc2cn(-c3cnc4ccccc4c3)nn2)C[C@@H](C)C(=O)/C=C/C(C)=C/[C@@H]1CNCc1ccc(Cl)cc1
– | 0.5 (≈ 0.554 µM) | – | 2 (≈ 2.22 µM) | CC[C@H]1OC(=O)C[C@@H](O)[C@H](C)[C@@H](O[C@@H]2O[C@H](C)[C@@H](O)[C@H](N(C)C)[C@H]2O)[C@@H](CCNCc2cn(-c3cnc4ccccc4c3)nn2)C[C@@H](C)C(=O)/C=C/C(C)=C/[C@@H]1CN1CCCCCCC1
– | 2 (≈ 2.01 µM) | – | 32 (≈ 32.2 µM) | CC[C@H]1OC(=O)C[C@@H](O)[C@H](C)[C@@H](O[C@@H]2O[C@H](C)[C@@H](O)[C@H](N(C)C)[C@H]2O)[C@@H](CCN(Cc2cn(-c3cnc4ccccc4c3)nn2)c2ccccc2)C[C@@H](C)C(=O)/C=C/C(C)=C/[C@@H]1CI
– | 0.5 (≈ 0.58 µM) | – | 2 (≈ 2.32 µM) | CC[C@H]1OC(=O)C[C@@H](O)[C@H](C)[C@@H](O[C@@H]2O[C@H](C)[C@@H](O)[C@H](N(C)C)[C@H]2O)[C@@H](CCNCc2cn(-c3cnc4ccccc4c3)nn2)C[C@@H](C)C(=O)/C=C/C(C)=C/[C@@H]1CN(C)C(C)C
– | 0.5 (≈ 0.533 µM) | – | 4 (≈ 4.26 µM) | CCCN(C)C[C@H]1/C=C(C)/C=C/C(=O)[C@H](C)C[C@H](CCN(Cc2cn(-c3cnc4ccccc4c3)nn2)c2ccccc2)[C@H](O[C@@H]2O[C@H](C)[C@@H](O)[C@H](N(C)C)[C@H]2O)[C@@H](C)[C@H](O)CC(=O)O[C@@H]1CC
– | 2 (≈ 2.18 µM) | – | 8 (≈ 8.73 µM) | CC[C@H]1OC(=O)C[C@@H](O)[C@H](C)[C@@H](O[C@@H]2O[C@H](C)[C@@H](O)[C@H](N(C)C)[C@H]2O)[C@@H](CCNCc2cn(-c3cnc4ccccc4c3)nn2)C[C@@H](C)C(=O)/C=C/C(C)=C/[C@@H]1CI
– | 0.5 (≈ 0.58 µM) | – | 2 (≈ 2.32 µM) | CC[C@H]1OC(=O)C[C@@H](O)[C@H](C)[C@@H](O[C@@H]2O[C@H](C)[C@@H](O)[C@H](N(C)C)[C@H]2O)[C@@H](CCNCc2cn(-c3cnc4ccccc4c3)nn2)C[C@@H](C)C(=O)/C=C/C(C)=C/[C@@H]1CN(CC)CC
– | 4 (≈ 4.11 µM) | – | 8 (≈ 8.23 µM) | CC[C@H]1OC(=O)C[C@@H](O)[C@H](C)[C@@H](O[C@@H]2O[C@H](C)[C@@H](O)[C@H](N(C)C)[C@H]2O)[C@@H](CCN(Cc2cn(-c3cnc4ccccc4c3)nn2)c2ccccc2)C[C@@H](C)C(=O)/C=C/C(C)=C/[C@@H]1CNCc1ccccc1
– | 1 (≈ 1.22 µM) | – | 4 (≈ 4.87 µM) | CC[C@H]1OC(=O)C[C@@H](O)[C@H](C)[C@@H](O[C@@H]2O[C@H](C)[C@@H](O)[C@H](N(C)C)[C@H]2O)[C@@H](CCN(C)Cc2cn(-c3cnc4ccccc4c3)nn2)C[C@@H](C)C(=O)/C=C/C(C)=C/[C@@H]1CO

MIC [1] [µg/mL] | MIC [2] [µg/mL] | MIC [3] [µg/mL] | MIC [4] [µg/mL] | SMILES
– | 2 (≈ 2.32 µM) | – | 8 (≈ 9.28 µM) | CCCNC[C@H]1/C=C(C)/C=C/C(=O)[C@H](C)C[C@H](CCN(C)Cc2cn(-c3cnc4ccccc4c3)nn2)[C@H](O[C@@H]2O[C@H](C)[C@@H](O)[C@H](N(C)C)[C@H]2O)[C@@H](C)[C@H](O)CC(=O)O[C@@H]1CC
– | 0.5 (≈ 0.541 µM) | – | 2 (≈ 2.16 µM) | CC[C@H]1OC(=O)C[C@@H](O)[C@H](C)[C@@H](O[C@@H]2O[C@H](C)[C@@H](O)[C@H](N(C)C)[C@H]2O)[C@@H](CCN(Cc2cn(-c3cnc4ccccc4c3)nn2)c2ccccc2)C[C@@H](C)C(=O)/C=C/C(C)=C/[C@@H]1CN(C)CC
– | 0.5 (≈ 0.533 µM) | – | 8 (≈ 8.53 µM) | CC[C@H]1OC(=O)C[C@@H](O)[C@H](C)[C@@H](O[C@@H]2O[C@H](C)[C@@H](O)[C@H](N(C)C)[C@H]2O)[C@@H](CCN(Cc2cn(-c3cnc4ccccc4c3)nn2)c2ccccc2)C[C@@H](C)C(=O)/C=C/C(C)=C/[C@@H]1CN(C)C(C)C
– | 1 (≈ 1.18 µM) | – | 8 (≈ 9.43 µM) | CCCNC[C@H]1/C=C(C)/C=C/C(=O)[C@H](C)C[C@H](CCNCc2cn(-c3cnc4ccccc4c3)nn2)[C@H](O[C@@H]2O[C@H](C)[C@@H](O)[C@H](N(C)C)[C@H]2O)[C@@H](C)[C@H](O)CC(=O)O[C@@H]1CC
– | 0.5 (≈ 0.599 µM) | – | 2 (≈ 2.4 µM) | CC[C@H]1OC(=O)C[C@@H](O)[C@H](C)[C@@H](O[C@@H]2O[C@H](C)[C@@H](O)[C@H](N(C)C)[C@H]2O)[C@@H](CCNCc2cn(-c3cnc4ccccc4c3)nn2)C[C@@H](C)C(=O)/C=C/C(C)=C/[C@@H]1CN(C)C
– | 0.25 (≈ 0.31 µM) | – | 4 (≈ 4.96 µM) | CC[C@H]1OC(=O)C[C@@H](O)[C@H](C)[C@@H](O[C@@H]2O[C@H](C)[C@@H](O)[C@H](N(C)C)[C@H]2O)[C@@H](CCNCc2cn(-c3cnc4ccccc4c3)nn2)C[C@@H](C)C(=O)/C=C/C(C)=C/[C@@H]1CO
– | 1 (≈ 1.09 µM) | – | 4 (≈ 4.37 µM) | CC[C@H]1OC(=O)C[C@@H](O)[C@H](C)[C@@H](O[C@@H]2O[C@H](C)[C@@H](O)[C@H](N(C)C)[C@H]2O)[C@@H](CCN(C)Cc2cn(-c3cnc4ccccc4c3)nn2)C[C@@H](C)C(=O)/C=C/C(C)=C/[C@@H]1CN(C)C1CCCCC1
– | 0.5 (≈ 0.572 µM) | – | 2 (≈ 2.29 µM) | CC[C@H]1OC(=O)C[C@@H](O)[C@H](C)[C@@H](O[C@@H]2O[C@H](C)[C@@H](O)[C@H](N(C)C)[C@H]2O)[C@@H](CCNCc2cn(-c3cnc4ccccc4c3)nn2)C[C@@H](C)C(=O)/C=C/C(C)=C/[C@@H]1CN1CCCCC1
– | 0.5 (≈ 0.59 µM) | – | 4 (≈ 4.72 µM) | CC[C@H]1OC(=O)C[C@@H](O)[C@H](C)[C@@H](O[C@@H]2O[C@H](C)[C@@H](O)[C@H](N(C)C)[C@H]2O)[C@@H](CCNCc2cn(-c3cnc4ccccc4c3)nn2)C[C@@H](C)C(=O)/C=C/C(C)=C/[C@@H]1CN(C)CC
– | 0.5 (≈ 0.58 µM) | – | 4 (≈ 4.64 µM) | CCCN(C)C[C@H]1/C=C(C)/C=C/C(=O)[C@H](C)C[C@H](CCNCc2cn(-c3cnc4ccccc4c3)nn2)[C@H](O[C@@H]2O[C@H](C)[C@@H](O)[C@H](N(C)C)[C@H]2O)[C@@H](C)[C@H](O)CC(=O)O[C@@H]1CC
– | 2 (≈ 2.15 µM) | – | 16 (≈ 17.2 µM) | CC[C@H]1OC(=O)C[C@@H](O)[C@H](C)[C@@H](O[C@@H]2O[C@H](C)[C@@H](O)[C@H](N(C)C)[C@H]2O)[C@@H](CCN(C)Cc2cn(-c3cnc4ccccc4c3)nn2)C[C@@H](C)C(=O)/C=C/C(C)=C/[C@@H]1CI
– | 1 (≈ 1.11 µM) | – | 2 (≈ 2.22 µM) | CC[C@H]1OC(=O)C[C@@H](O)[C@H](C)[C@@H](O[C@@H]2O[C@H](C)[C@@H](O)[C@H](N(C)C)[C@H]2O)[C@@H](CCNCc2cn(-c3cnc4ccccc4c3)nn2)C[C@@H](C)C(=O)/C=C/C(C)=C/[C@@H]1CN(C)C1CCCCC1
– | 0.5 (≈ 0.563 µM) | – | 1 (≈ 1.13 µM) | CC[C@H]1OC(=O)C[C@@H](O)[C@H](C)[C@@H](O[C@@H]2O[C@H](C)[C@@H](O)[C@H](N(C)C)[C@H]2O)[C@@H](CCNCc2cn(-c3cnc4ccccc4c3)nn2)C[C@@H](C)C(=O)/C=C/C(C)=C/[C@@H]1CN1CCCCCC1
– | 2 (≈ 2.18 µM) | – | 8 (≈ 8.71 µM) | CCCCN(CCCC)C[C@H]1/C=C(C)/C=C/C(=O)[C@H](C)C[C@H](CCNCc2cn(-c3cnc4ccccc4c3)nn2)[C@H](O[C@@H]2O[C@H](C)[C@@H](O)[C@H](N(C)C)[C@H]2O)[C@@H](C)[C@H](O)CC(=O)O[C@@H]1CC
– | 1 (≈ 1.01 µM) | – | 32 (≈ 32.2 µM) | CCCCN(CCCC)C[C@H]1/C=C(C)/C=C/C(=O)[C@H](C)C[C@H](CCN(Cc2cn(-c3cnc4ccccc4c3)nn2)c2ccccc2)[C@H](O[C@@H]2O[C@H](C)[C@@H](O)[C@H](N(C)C)[C@H]2O)[C@@H](C)[C@H](O)CC(=O)O[C@@H]1CC
